Laboratory results as given in patent US12077503B2, “Substituted cyclic amides and their use as herbicides” (FMC CORPORATION, priority 2015, dated 2024).

Experiments:
Assay in all cases: Test C preemergence
Type in all cases: in vivo
[1] = tested on: barnyardgrass (Echinochloa crus-galli); settings: for Plant response rating, Barnyardgrass: scale 0 to 100, 0 no effect, 100 complete control
Outline: (§1)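 After treatment with surfactant-containing formulations, either preemergence to seeds in loam-sand soil or postemergence to potted seedlings at 2–18 cm, plants were kept 13–15 d in a greenhouse. Observers then compared them with controls and assigned ratings, 0 signifying no effect and 100 complete control.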

[2] = tested on: blackgrass (Alopecurus myosuroides); settings: for Plant response rating, Blackgrass: scale 0 to 100, 0 no effect, 100 complete control
Outline: as §1

[3] = tested on: wheat (winter wheat, Triticum aestivum); settings: for Plant response rating, Wheat: scale 0 to 100, 0 no effect, 100 complete control
Outline: as §1

[4] = tested on: pigweed (Amaranthus retroflexus); settings: for Plant response rating, Pigweed: scale 0 to 100, 0 no effect, 100 complete control
Outline: as §1

[5] = tested on: crabgrass, large (large crabgrass, Digitaria sanguinalis); settings: for Plant response rating, Crabgrass, Large: scale 0 to 100, 0 no effect, 100 complete control
Outline: as §1

[6] = tested on: johnsongrass (Sorghum halepense); settings: for Plant response rating, Johnsongrass: scale 0 to 100, 0 no effect, 100 complete control
Outline: as §1

[7] = tested on: velvetleaf (Abutilon theophrasti); settings: for Plant response rating, Velvetleaf: scale 0 to 100, 0 no effect, 100 complete control
Outline: as §1

[8] = tested on: soybean (Glycine max); settings: for Plant response rating, Soybean: scale 0 to 100, 0 no effect, 100 complete control
Outline: as §1

[9] = tested on: ryegrass, Italian (Italian ryegrass, Lolium multiflorum); settings: for Plant response rating, Ryegrass, Italian: scale 0 to 100, 0 no effect, 100 complete control
Outline: as §1

[10] = tested on: oilseed rape (Brassica napus); settings: for Plant response rating, Oilseed Rape: scale 0 to 100, 0 no effect, 100 complete control
Outline: as §1

[11] = tested on: foxtail, giant (giant foxtail, Setaria faberii); settings: for Plant response rating, Foxtail, Giant: scale 0 to 100, 0 no effect, 100 complete control
Outline: as §1

[12] = tested on: lambsquarters (Chenopodium album); settings: for Plant response rating, Lambsquarters: scale 0 to 100, 0 no effect, 100 complete control
Outline: as §1

[13] = tested on: waterhemp (common waterhemp, Amaranthus rudis); settings: for Plant response rating, Waterhemp: scale 0 to 100, 0 no effect, 100 complete control
Outline: as §1

[14] = tested on: ragweed (common ragweed, Ambrosia elatior); settings: for Plant response rating, Ragweed: scale 0 to 100, 0 no effect, 100 complete control
Outline: as §1

[15] = tested on: Galium (catchweed bedstraw, Galium aparine); settings: for Plant response rating, Galium: scale 0 to 100, 0 no effect, 100 complete control
Outline: as §1

[16] = tested on: morningglory (Ipomoea coccinea); settings: for Plant response rating, Morningglory: scale 0 to 100, 0 no effect, 100 complete control
Outline: as §1

[17] = tested on: nutsedge, yellow (yellow nutsedge, Cyperus esculentus); settings: for Plant response rating, Nutsedge, Yellow: scale 0 to 100, 0 no effect, 100 complete control
Outline: as §1

[18] = tested on: corn (Zea mays); settings: for Plant response rating, Corn: scale 0 to 100, 0 no effect, 100 complete control
Outline: as §1

[19] = 31 g ai/ha, 0 is no effect, 100 is complete control

Cc1ccc(C2CN(C)C(=O)C2C(=O)Nc2ccccc2S(C)(=O)=O)cc1 (stereo not drawn) [Compound 663]
Plant response rating (scale of 0 to 100), Barnyardgrass [1, 19]: 95 | Plant response rating, Barnyardgrass ([1]; 62 g ai/ha): 90 | Plant response rating, Barnyardgrass ([1]; 125 g ai/ha): 98 | Plant response rating, Barnyardgrass ([1]; 250 g ai/ha): 100 | Plant response rating (scale of 0 to 100), Blackgrass [2, 19]: 20 | Plant response rating, Blackgrass ([2]; 62 g ai/ha): 60 | Plant response rating, Blackgrass ([2]; 125 g ai/ha): 85 | Plant response rating, Blackgrass ([2]; 250 g ai/ha): 95 | Plant response rating (scale of 0 to 100), Wheat [3, 19]: 0 | Plant response rating, Wheat ([3]; 62 g ai/ha): 50 | Plant response rating, Wheat ([3]; 125 g ai/ha): 55 | Plant response rating, Wheat ([3]; 250 g ai/ha): 90 | Plant response rating (scale of 0 to 100), Pigweed [4, 19]: 70 | Plant response rating, Pigweed ([4]; 62 g ai/ha): 60 | Plant response rating, Pigweed ([4]; 125 g ai/ha): 70 | Plant response rating, Pigweed ([4]; 250 g ai/ha): 75 | Plant response rating (scale of 0 to 100), Crabgrass, Large [5, 19]: 95 | Plant response rating, Crabgrass, Large ([5]; 62 g ai/ha): 98 | Plant response rating, Crabgrass, Large ([5]; 125 g ai/ha): 100 | Plant response rating, Crabgrass, Large ([5]; 250 g ai/ha): 100 | Plant response rating (scale of 0 to 100), Johnsongrass [6, 19]: 0 | Plant response rating, Johnsongrass ([6]; 62 g ai/ha): 10 | Plant response rating, Johnsongrass ([6]; 125 g ai/ha): 20 | Plant response rating, Johnsongrass ([6]; 250 g ai/ha): 40 | Plant response rating (scale of 0 to 100), Velvetleaf [7, 19]: 5 | Plant response rating, Velvetleaf ([7]; 62 g ai/ha): 15 | Plant response rating, Velvetleaf ([7]; 125 g ai/ha): 30 | Plant response rating, Velvetleaf ([7]; 250 g ai/ha): 55 | Plant response rating (scale of 0 to 100), Soybean [8, 19]: 0 | Plant response rating, Soybean ([8]; 62 g ai/ha): 10 | Plant response rating, Soybean ([8]; 125 g ai/ha): 0 | Plant response rating, Soybean ([8]; 250 g ai/ha): 0 | Plant response rating (scale of 0 to 100), Ryegrass, Italian [9, 19]: 10 | Plant response rating, Ryegrass, Italian ([9]; 62 g ai/ha): 70 | Plant response rating, Ryegrass, Italian ([9]; 125 g ai/ha): 50 | Plant response rating, Ryegrass, Italian ([9]; 250 g ai/ha): 75 | Plant response rating (scale of 0 to 100), Oilseed Rape [10, 19]: 30 | Plant response rating, Oilseed Rape ([10]; 62 g ai/ha): 20 | Plant response rating, Oilseed Rape ([10]; 125 g ai/ha): 65 | Plant response rating, Oilseed Rape ([10]; 250 g ai/ha): 80 | Plant response rating (scale of 0 to 100), Foxtail, Giant [11, 19]: 95 | Plant response rating, Foxtail, Giant ([11]; 62 g ai/ha): 95 | Plant response rating, Foxtail, Giant ([11]; 125 g ai/ha): 98 | Plant response rating, Foxtail, Giant ([11]; 250 g ai/ha): 100 | Plant response rating (scale of 0 to 100), Lambsquarters [12, 19]: 70 | Plant response rating, Lambsquarters ([12]; 62 g ai/ha): 60 | Plant response rating, Lambsquarters ([12]; 125 g ai/ha): 65 | Plant response rating, Lambsquarters ([12]; 250 g ai/ha): 85 | Plant response rating (scale of 0 to 100), Waterhemp [13, 19]: 50 | Plant response rating, Waterhemp ([13]; 62 g ai/ha): 60 | Plant response rating, Waterhemp ([13]; 125 g ai/ha): 85 | Plant response rating, Waterhemp ([13]; 250 g ai/ha): 90 | Plant response rating (scale of 0 to 100), Ragweed [14, 19]: 50 | Plant response rating, Ragweed ([14]; 62 g ai/ha): 55 | Plant response rating, Ragweed ([14]; 125 g ai/ha): 70 | Plant response rating, Ragweed ([14]; 250 g ai/ha): 85 | Plant response rating (scale of 0 to 100), Galium [15, 19]: 90 | Plant response rating, Galium ([15]; 62 g ai/ha): 90 | Plant response rating, Galium ([15]; 125 g ai/ha): 85 | Plant response rating, Galium ([15]; 250 g ai/ha): 90 | Plant response rating (scale of 0 to 100), Morningglory [16, 19]: 0 | Plant response rating, Morningglory ([16]; 62 g ai/ha): 35 | Plant response rating, Morningglory ([16]; 125 g ai/ha): 30 | Plant response rating, Morningglory ([16]; 250 g ai/ha): 40 | Plant response rating (scale of 0 to 100), Nutsedge, Yellow [17, 19]: 0 | Plant response rating, Nutsedge, Yellow ([17]; 62 g ai/ha): 0 | Plant response rating, Nutsedge, Yellow ([17]; 125 g ai/ha): 0 | Plant response rating, Nutsedge, Yellow ([17]; 250 g ai/ha): 50 | Plant response rating (scale of 0 to 100), Corn [18, 19]: 0 | Plant response rating, Corn ([18]; 62 g ai/ha): 10 | Plant response rating, Corn ([18]; 125 g ai/ha): 20 | Plant response rating, Corn ([18]; 250 g ai/ha): 60
